Measurements as given in patent US10745363B2 (NORATECH PHARMACEUTICALS, INC., priority 2016, dated 2020).
Counter-ions that a name gives are not always drawn.

Legend:
[1] = Determination of hygroscopicity (water absorption in open weighing bottle, artificial climate chamber); format: physicochemical; details: 25±1° C., relative humidity 43.5±2%; for Water absorption, %: open weighing bottle, disodium salt
Procedure: 1. Take a dry stuffed glass weighing bottle (outer diameter 50 mm, height 15 mm) in the artificial climate chamber (set temperature is 25±1° C., relative humidity is 43.5±2%) and weight it (m1).
2. Take the appropriate amount of the crystalline form in the present invention, and place it in the abovementioned weighing bottle and lay it inside the weighing bottle. The thickness of the test sample is generally about 1 mm. Weight the sample (m2).
3. Uncover the weighing bottle and place it with the bottle cap under constant temperature and humidity (set temperature is 25±1° C., relative humidity is 43.5±2%).
4. Put the cap back on the weighing bottle before weighing, and then weight it (m3). The water absorption percentage for each time point is calculated by the formula=(m3−m2)/(m2−m1)×100%.

[2] = cited from earlier work

CCCCC(=O)N(Cc1ccc(-c2ccccc2-c2nnn[nH]2)cc1)[C@H](C(=O)O)C(C)C [Crystalline form A, valsartan disodium salt]
Water absorption, % ([1]; 2 h, listed as A): 1.6%
water absorption ([1]; 3 hours, open container): 2.6%
Water absorption, % ([1]; 4 h, listed as A): 2.0%
Water absorption, % ([1]; 24 h, listed as A): 2.4%

CCCCC(=O)N(Cc1ccc(-c2ccccc2-c2nnn[nH]2)cc1)[C@H](C(=O)O)C(C)C [Crystalline form B, valsartan disodium salt]
Water absorption, % ([1]; 2 h, listed as B): 1.9%
Water absorption, % ([1]; 4 h, listed as B): 2.3%
Water absorption, % ([1]; 24 h, listed as B): 3.0%

CCCCC(=O)N(Cc1ccc(-c2ccccc2-c2nnn[nH]2)cc1)[C@H](C(=O)O)C(C)C [Crystalline form D, valsartan disodium salt]
Water absorption, % ([1]; 2 h, listed as D): 1.3%
Water absorption, % ([1]; 4 h, listed as D): 1.9%
Water absorption, % ([1]; 24 h, listed as D): 2.7%

CCCCC(=O)N(Cc1ccc(-c2ccccc2-c2nnn[nH]2)cc1)[C@H](C(=O)O)C(C)C [Crystalline form E, valsartan disodium salt]
Water absorption, % ([1]; 2 h, listed as E): 2.1%
Water absorption, % ([1]; 4 h, listed as E): 2.9%
Water absorption, % ([1]; 24 h, listed as E): 3.6%

CCCCC(=O)N(Cc1ccc(-c2ccccc2-c2nnn[nH]2)cc1)[C@H](C(=O)O)C(C)C [Crystalline form F, valsartan disodium salt]
Water absorption, % ([1]; 2 h, listed as F): 1.7%
Water absorption, % ([1]; 4 h, listed as F): 2.2%
Water absorption, % ([1]; 24 h, listed as F): 2.8%

CCCCC(=O)N(Cc1ccc(-c2ccccc2-c2nnn[nH]2)cc1)[C@H](C(=O)O)C(C)C [Crystalline form G, valsartan disodium salt]
Water absorption, % ([1]; 2 h, listed as G): 0.7%
Water absorption, % ([1]; 4 h, listed as G): 1.3%
Water absorption, % ([1]; 24 h, listed as G): 1.5%

CCCCC(=O)N(Cc1ccc(-c2ccccc2-c2nnn[nH]2)cc1)[C@H](C(=O)O)C(C)C [Crystalline form H, valsartan disodium salt]
Water absorption, % ([1]; 2 h, listed as H): 2.0%
Water absorption, % ([1]; 4 h, listed as H): 2.8%
Water absorption, % ([1]; 24 h, listed as H): 4.0%

CCCCC(=O)N(Cc1ccc(-c2ccccc2-c2nnn[nH]2)cc1)[C@H](C(=O)O)C(C)C [Valsartan sodium salt]
hygroscopicity (in words) ([2]; background statement): hygroscopic

CCCCC(=O)N(Cc1ccc(-c2ccccc2-c2nnn[nH]2)cc1)[C@H](C(=O)O)C(C)C [valsartan disodium salt]
hygroscopicity ([2]; equilibrated in air, 5.36 mol H2O by elemental analysis (CN01813039.9)): up to 20%
